Publication PMC4823704, “Trastuzumab-grafted PAMAM dendrimers for the selective delivery of anticancer drugs to HER2-positive breast cancer” (Scientific Reports, 2016)

Experiments:
[1] = test system: MDA-MB-453 cells; assay: Annexin V-FITC/PI apoptosis assay; assay type: cell-based, human; settings: 56 ng/mL, 24 h
Description: To evaluate apoptosis and necrosis, we used Annexin V-FITC/PI assays, as per the manufacturer’s protocols. Briefly, MDA-MB-453 cells (1 × 10^6 cells/well) were seeded in six-well plates and maintained at 37 °C in 5% CO2 and a 95% humidified atmosphere. The medium was replaced with freshly prepared medium containing drug-loaded formulations. Untreated cells were used as controls. After 24 h, cells were washed twice with PBS and resuspended in 500 μL of binding buffer. We added 5 μL of FITC-conjugated Annexin V and 10 μL of PI, and incubated cells for 15 min at room temperature in the dark. Cells were then analyzed by a Muse™ Cell Analyzer (Merck-Millipore, Germany) and the extent of apoptosis and necrosis was determined.

[2] = test system: MDA-MB-453 cells (HER2-positive); assay: Anti-proliferation assay (MTT); assay type: cell-based; settings: Homo sapiens
Description: (§1) Cells were grown in DMEM medium supplemented with 10% fetal bovine serum, 100 U/mL penicillin, […] streptomycin and 2 mM/L L-glutamine. Cells were maintained at 37 °C in 5% CO2.
(§2) Cells were seeded in 96-well plates at a density of 5 × 10^3 cells per well in 100 μL of medium. […] Media were then replaced with serum-free DMEM containing MTT (0.5 mg/mL), then cells were incubated for 4 h. Media were removed and 150 μL of DMSO was added to dissolve formazan crystals. Absorbance was measured at 570 nm using a microplate reader. Untreated cells were used as a negative control (100% viability). IC50 was calculated by fitting the curve of cell viability against the drug concentration.

[3] = patients, p = 0.03; cited from earlier work
[4] = test system: MDA-MB-231 cells (HER2-negative); assay: Anti-proliferation assay (MTT); assay type: cell-based, human
Description: as §1, §2

In the case of `CC(=O)O[C@@]12CO[C@@H]1C[C@H](O)[C@@]1(C)C(=O)[C@H](O)C3=C(C)[C@@H](OC(=O)[C@H](O)[C@@H](NC(=O)OC(C)(C)C)c4ccccc4)C[C@@](O)([C@@H](OC(=O)c4ccccc4)[C@H]21)C3(C)C` [DTX, docetaxel], the live cells [1] is reported as 83.1%, the “total percentage of apoptotic cells” value [1] is reported as 16.5% and the viability at 0.125 µg/mL ([2]; 125 ng/mL drug concentration, 48 h, MDA-MB-453, read-out: cell viability) is reported as 69%. The IC50 ([2]; MDA-MB-453, 48 h of incubation) was > 0.25 µg/mL, the survival [3] was 22.7 months and the cell viability ([4]; 48 h, MDA-MB-231) was 61.9%. For the same molecule, the IC50 ([4]; Homo sapiens, MDA-MB-231, 48 h of incubation) was > 0.25 µg/mL.
